# Measured values reported in ChEMBL document CHEMBL1135952, “Successful bridging from a peptide to a non peptide antagonist at the human tachykinin NK-2 receptor” (Bioorg Med Chem Lett, 2002).
# Tests used:
# Substance-K receptor [1] = target: T1, Substance-K receptor (Homo sapiens, UniProt P21452); test: Functional affinity was evaluated by measuring the intracellular calcium concentration in CHO cells transfected with the human Tachykinin receptor 2 using Fura-2; assay type: cell-based; details: read-out: pA2 (converted)
# T1 sequence (P21452 whole entry): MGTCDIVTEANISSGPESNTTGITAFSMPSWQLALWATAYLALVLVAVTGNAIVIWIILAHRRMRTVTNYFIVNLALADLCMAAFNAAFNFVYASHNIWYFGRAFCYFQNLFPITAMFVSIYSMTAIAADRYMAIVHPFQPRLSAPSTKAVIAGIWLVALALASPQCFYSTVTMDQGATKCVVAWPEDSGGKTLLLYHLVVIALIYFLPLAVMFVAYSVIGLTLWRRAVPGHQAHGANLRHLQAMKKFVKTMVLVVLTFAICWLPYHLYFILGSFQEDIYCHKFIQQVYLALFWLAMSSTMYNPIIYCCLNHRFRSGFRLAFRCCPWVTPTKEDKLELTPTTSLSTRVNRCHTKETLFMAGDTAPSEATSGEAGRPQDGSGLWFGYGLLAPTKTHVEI
# Substance-K receptor [2] = target: T1, Substance-K receptor; test: Compound was tested for it's binding affinity against human Tachykinin receptor 2
Structure (SMILES),Kb (Substance-K receptor [1]),Ki (Substance-K receptor [2])
O=C(NCCc1c[nH]c2ccccc12)c1nccnc1C(=O)N(CCCN1CCOCC1)CCc1c[nH]c2ccccc12,–,501 nM
CN(CCc1c[nH]c2ccccc12)C(=O)c1ccccc1C(=O)N(CCCN1CCSCC1)CCc1c[nH]c2ccccc12,10 nM,10 nM
O=C(c1ccccc1C(=O)N(CCCN1CCOCC1)CCc1c[nH]c2ccccc12)N(CCCN1CCOCC1)CCc1c[nH]c2ccccc12,–,31.6 nM
O=C(c1nccnc1C(=O)N(CCCN1CCOCC1)CCc1c[nH]c2ccccc12)N(CCCN1CCOCC1)CCc1c[nH]c2ccccc12,–,126 nM

# Now those with a lower Ki (Substance-K receptor [2]), led by results:
Kb (Substance-K receptor [1]),Ki (Substance-K receptor [2]),Structure (SMILES)
3.98 nM,3.98 nM,O=C(c1ccccc1C(=O)N(CCCN1CCSCC1)CCc1c[nH]c2ccccc12)N(CCCN1CCSCC1)CCc1c[nH]c2ccccc12
–,2 nM,CN(C)CCN(C)C(=O)c1nccnc1C(=O)N[C@@H]1CC(=O)N[C@@H](Cc2c[nH]c3ccccc23)C(=O)N[C@@H](Cc2ccccc2)C(=O)N[C@H](Cc2ccccc2)CNC1=O
